Source: patent US20180265467A1, “PYRAZOLIDINE DERIVATIVES AND RELATED COMPOUNDS” (SELVITA S.A., priority 2015, published 2018)

What was measured:
SNU-398 cells = assay: SNU-398 cellular lactate production assay; format: cell-based; conditions: Snu398 cells; shown in FIG. 1
Method: In each case, and by methods known to those practiced, measurement of cellular lactate production is used to measure the activity of compounds on cancer cells.
Cells are seeded on 96-well plate in complete culture medium (200 μL media/well) at a density of 80,000 SNU-398 cells/well. The following day, eight serial dilutions of the test compound is prepared in complete culture medium and added to cells in a fresh media for 2 h. Following incubation 30 μL of culture medium from each well is transferred to a corresponding well on a new 96-well plate. In parallel Lactate Standard (30 μL/well) (Sigma, Cat. # L7022) is prepared in order to create a standard curve. 60 μL of Lactate Reagent (P000024, M Dialysis AB) is added to each well containing lactate standards or test samples and Incubated in dark for 10 min at RT followed by measurement of OD at 530 nm in a microplate reader.
Background subtracted values derived from the lactate standard and sample readings are used to determine ED50 (or % of inhibition) from data obtained in SNU-398 cellular lactate production assay:
ED50 is a quantitative measure that indicates how much of a particular compound is needed to reduce SNU-398 lactate production by half. After normalization to DMSO-control, the value of ED50 is determined by the GraphPad Prism 5.0 [log(inhibitor) vs. normalized response—Variable slope]. […]

LDHA = biological target: T1, LDHA (Homo sapiens, UniProt P00338); assay: LDHA assay (decrease in NADH fluorescence); format: biochemical; conditions: numeric bound given instead of a class symbol
T1 construct: purchased Abcam ab93699
Method: LDHA and LDHB inhibitory activity of compounds of the present invention is quantified employing the decrease in fluorescence of the cofactor—NADH (being the result of oxidation of NADH to NAD+), over the reaction. […] All the experiments are performed in duplicates in a 96-well plate system (black, flat bottom, non-binding).
The procedure for preparation of the experimental plate is as follows (total volume of the reaction mixture: 200 μL/well):
Conditions for LDHA (Abcam, Cat. No# ab93699) Assay
Mixture of appropriate 1× concentrated reaction buffer (175 μL/well) and 40× concentrated LDHA (5 μL/well); pre-incubate for 30 mins at RT is combined with 20× concentrated pyruvate (10 μL/well) and 20× concentrated NADH (10 μL/well). Tested compounds are dissolved in solvent (DMSO, MeOH, EtOH), and then transferred to the V-bottom 96-well plate (mother plate). Single dilution (for % of inhibition determination) or 8-serial dilutions (for IC50 determination) are prepared using the appropriate solvent. The level of NADH fluorescence is then measured using multimode microplate reader (EnSpire, Perkin Elmer). The reaction should be monitored over 20 minutes with the full plate read performed each 5 minutes. Enzymatic reaction should be run at RT.
IC50 is a quantitative measure that indicates how much of a particular compound (inhibitor) is needed to inhibit a given biological process by half. […]

IC50 (LDHA) [µM] | SMILES | Inhibition of lactate production (SNU-398 cells)
 | O=c1c(Sc2ccccc2Cl)c(O)[nH]n1C(c1ccccc1)c1ccc(N2CCOCC2)cc1 (centres unmarked) [Example 8A, Ammonium 4-[(2-chlorophenyl)sulfanyl]-2-{[4-(morpholin-4-yl)phenyl](phenyl)methyl}-5-oxo-2,5-dihydro-1H-pyrazol-3-olate] | Inhibition of lactate production
> 300 | O=C1N[C@H](Cc2ccccc2)C(O)=C1Sc1cc(Br)ccc1Cl [Example 6E, 5-benzyl-3-[(5-bromo-2-chlorophenyl)sulfanyl]pyrrolidine-2,4-dione] | 
